According to patent US20240294478A1, “ANTI-CANCER COMPOUNDS AND METHODS OF USE” (YALE UNIVERSITY, priority 2021, published 2024):
Read-outs that look alike come from different tables or passages of the source.

Tests used:
Format in all cases: cell-based, human
LN229 MGMT−/MMR+ cells = assay: Short-term cell viability assay, LN229 MGMT-/MMR+; conditions: for IC50: Homo sapiens, read-out: IC50 against LN229 cell lines, MGMT− MMR+; for MGMT− TI: Table III
Experimental: LN229 MGMT- and MGMT+ cell lines were a gift from B. Kaina (Johannes Gutenberg University Mainz, Mainz, Germany) and grown in Gibco® Duilbecco's Modified Eagle Medium with 10% fetal bovine serum (DMEM). For each compound tested, the relationship between MGMT status and MMR status and compound activity, in terms of IC50 values ([…]), was determined by the following method. On day 1, LN229 isogenic cells of varying MGMT and MMR status were seeded in 96 well format at a density of 2000 cells/well in 100 μL of DMEM media and allowed to adhere overnight. On day 2, a drug master plate was made with 100×the desired maximal concentration of test compound and serially diluted by 2 until 100×the minimal desired concentration, with one DMSO control. Then daughter plates were created with varied concentrations from 3-times the minimal concentration to 3-times the maximal desired concentration. Afterwards, 50 μL of daughter drug plate was added to 100 μL of the seeded cells for a final concentration of 1×in triplicate. Cells were allowed to grow for 6 days. On day 7, the cells were fixed, and stained with Hoechst nuclear dye and imaged to determine growth inhibition.
For each compound tested, the relationship between MGMT status and MMR status and compound activity, in terms of IC50 values (in μM), was determined. In addition, for each compound, the therapeutic index (TI) was calculated, according to the equation MGMT TI=IC50 (MGMT+/MMR+) divided by IC50 (MGMT−/MMR+). The T1 indicates the efficacy of a compound in treating the targeted MGMT-cancer cells as compared to potential for the same compound to damage, or have adverse effects against, normal cells which are MGMT+cells, The higher the value of the TI, the safer the compound is. […] MMR RI (resistance index)=IC50 (MGMT−/MMR−) divided by IC50 (MGMT−/MMR+). The higher the value of the RI, the less likely that resistance to the compound will develop.
(§1) Short-term Cell Viability Assay. Cells were seeded in 96-well plates at 1000 or 2000 cells/well and allowed to adhere at 23° C. for 60 min and then incubated overnight at 37° C. Cells were treated with indicated concentrations of compounds in triplicate for 4-6 days prior to fixation with 3.7% paraformaldehyde and nuclear staining with 1 μg/mL Hoechst 33342 dye. Cells were imaged on a Cytation 3 imaging reader (BioTek) and quantified using CellProfiler software. For in vitro short-term growth delay experiments, IC50 values were determined from the nonlinear regression equation, [inhibitor] vs normalized response with variable slope.

[1] = test system: HCT116 cells complemented with chromosome 3 carrying wildtype MLH1 (+Chr3); assay: Short-term viability assay, HCT116 +Chr3 cells +/- O6BG; conditions: with or without 10 μM O6BG pre-treatment
Experimental: FIG. 1B: Short-term viability assay curves for KL-50 in DLD1 MSH6-deficient cells pre-treated with 0.01% DMSO control (CTR) or 10 μM O^6BG (+O^6BG) for 1 h prior to KL-50 addition. […] Short-term viability assay curves for (FIG. 1E) KL-50 in HCT116 MLH1−/−cells or (FIG. 1F) HCT116 cells complemented with chromosome 3 carrying wildtype MLH1 (+Chr3) pre-treated with 0.01% DMSO control or 10 μM O^6BG (+O^6BG) for 1 h prior to KL-50 addition. […] For these figures, points, mean; error bars, SD; n>3 technical replicates.
as §1

MGMT− LN229 cells = assay: Clonogenic survival assay, LN229 MGMT- cells
Experimental: (§2) In vitro clonogenic survival assays (CSAs) were performed using four isogenic LN229 glioblastoma cell lines.
(§3) Clonogenic Cell Survival Assay. Cells of each line were pretreated with the test drug in culture for 48-72 hours at the specified dilutions. The cells were then immediately seeded in six-well plates in triplicate at three-fold dilutions, ranging from 9000 to 37 cells per well. Depending on colony size, these plates were kept in the incubator for 10 to 14 days. After incubation, colonies were washed in phosphate-buffered saline (PBS) and stained with crystal violet. Colonies were counted by hand. Counts were normalized to plating efficiency of the corresponding treatment condition.

MGMT+ LN229 cells = assay: Clonogenic survival assay, LN229 MGMT+ cells
Experimental: as §2, §3

LN229 MGMT− shMSH3 cells = assay: Short-term viability assay, LN229 MGMT- shMSH3; conditions: for IC50: Homo sapiens, LN-229, Table III, read-out: IC50 against LN229 cell lines, MGMT− MMR−; for MGMT− RI: Table III
Experimental: The activity of KL-50 in MGMT-LN229 cells engineered to lack expression of other key MMR proteins including MSH6, MLH1, PMS2, and MSH3 was also confirmed. Western blotting was performed in LN229 MGMT+/−cells with stable expression of shRNA targeting MSH6, MLH1, PMS2, or MSH3 to confirm depletion of the shRNA targets. In shMSH6 cells, there was reduced expression of MSH2, and in shMLH1 cells, there was loss of PMS2, due to destabilization in the setting of loss of their heterodimeric partners. GAPDH serves as loading control. […] Short-term viability assay curves for KL-50 in LN229 MGMT+/−, MMR+/shMSH6 cells. […] Short-term viability assay curves for KL-50 in LN229 MGMT+/−, MMR+/shMLH1 cells. […] Short-term viability assay curves for KL-50 in LN229 MGMT+/−, MMR+/shPMS2 cells. […] Short-term viability assay curves for KL-50 in LN229 MGMT+/−, MMR+/shMSH3 cells.
MMR Protein shRNA Knockdown. pGIPZ lentiviral shRNA vectors targeting MSH2, MSH6, MLH1, PMS2, and MSH3 were purchased from Horizon Discovery (Table IV). Lentiviral particles were produced in HEK293T cells via co-transfection with lentiviral shRNA plasmid, pCMV-VSV-G envelope plasmid (Addgene, #8454) and psPAX2 packaging plasmid (Addgene, #12260), using Lipofectamine 3000 Reagent (Invitrogen, L3000001) per manufacturer's protocol. Viral particles were harvested 48 h post-transfection and used to transduce LN229 MGMT+/−cells in the presence of 8 μg/mL polybrene. Selection of pooled cells with lentiviral expression was established with 1 μg/mL puromycin 48 h post-transduction for 3 to 4 days. Single cell cloning was performed by limiting dilution and protein knockdown was confirmed by western blotting.
as §1

## Cn1nnc2c(C(N)=O)ncn2c1=O [TMZ, 4-methyl-5-oxo-2,3,4,6,8-pentazabicyclo[4.3.0]nona-2,7,9-triene-9-carboxamide, reference compound]
LN229 MGMT−/MMR+ cells; LN-229, 144 h, Table 1, 6 days growth
  IC50: 8.3 ± 3.5 µM
LN229 MGMT−/MMR+ cells; LN-229, Table III, shRNA None
  IC50: 5.1 ± 0.8 µM
LN229 MGMT−/MMR+ cells; LN-229, Table II
  IC50: 8.3 ± 3.5 µM
LN229 MGMT−/MMR+ cells; shRNA None
  MGMT− TI: 137
[1]
  cytotoxicity in HCT116 MLH1-complemented cells: enhanced sensitivity to TMZ, which was further potentiated by MGMT depletion
MGMT− LN229 cells
  clonogenic survival, activity in MGMT−, MMR+ cells: robust tumor cell killing
MGMT− LN229 cells; isogenic cells lacking MMR
  clonogenic survival, activity in MMR− cells: abolished
MGMT+ LN229 cells; irrespective of MMR status
  clonogenic survival, activity in MGMT+ cells: negligible activity
LN229 MGMT− shMSH3 cells
  IC50: 3.1 ± 0.6 µM
  MGMT− RI: 0.6

## NC(=O)c1ncn2c(=O)n(CCF)nnc12 [KL-50]
LN229 MGMT−/MMR+ cells; LN-229, Table III, shRNA None
  IC50: 13.2 ± 0.8 µM
LN229 MGMT−/MMR+ cells; LN-229, Table II
  IC50: 24.7 ± 4.1 µM
LN229 MGMT−/MMR+ cells; LN229 isogenic lines
  TI / RI, in words: superior TI and RI
LN229 MGMT−/MMR+ cells; Table II, IC50 (MGMT+/MMR+) divided by IC50 (MGMT−/MMR+)
  MGMT− TI (therapeutic index): 24
LN229 MGMT−/MMR+ cells; shRNA None
  MGMT− TI: 22
[1]
  cytotoxicity in HCT116 MLH1-complemented cells: induced selective tumor cell killing specifically in the setting of O^6BG-induced MGMT suppression
MGMT− LN229 cells; independent of MMR status
  clonogenic survival, antitumor activity in MGMT− cells: robust antitumor activity
MGMT+ LN229 cells; at doses up to at least 200 μM
  clonogenic survival, toxicity to MGMT+ cells: minimal toxicity
LN229 MGMT− shMSH3 cells
  IC50: 7.9 ± 0.3 µM
  MGMT− RI: 0.6
